Consider 84 compounds from PubChem BioAssay AID588780 (Sanford-Burnham Center for Chemical Genomics, 2011).

Structures are written as SMILES. The source made the active and inactive calls.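 Rule for the calls: active = compounds whose fitted half-maximal concentration in the cell-protection dose series is at or below a set limit; inactive = the rest.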

The test system of this assay is H9c2 cardiomyocytes, 2-deoxyglucose stress, ATP luminescence, 2 h. In words: protection of cardiomyocytes from 2-deoxyglucose injury, dose response, cell-based, 2-deoxyglucose stress, uHTS hits (AID 588780).
Turning to `CS(=O)(=O)Nc1cccc(NC(=O)c2cccc3c(-c4cccc(C(N)=O)c4)coc23)c1`, the IC50 (in general, the concentration needed to halve the response being measured) was > 79 µM (inactive). Under `Cc1cccc(C(=O)NC(C(=O)Nc2nc(-c3ccccn3)cs2)C(C)C)c1` (centres undefined) stands 12.7 µM; under `CCOC(=O)c1cccc(Nc2nc(-c3cccnc3)nc3ccccc23)c1`, 29.1 µM; under `O=C(CNC(=O)c1[nH]cnc1C(=O)NC(c1ccccc1)c1ccccc1)OCc1ccccc1`, 13.1 µM. Under `CCOc1ccc(N(CC(=O)N/N=C/c2ccccn2)S(=O)(=O)c2ccc(Cl)cc2)cc1` stands > 79 µM (inactive); under `COc1ccc(OC)c(C2CC(=O)c3c([nH]c(C(=O)OCC4CCCO4)c3C)C2)c1` (centres undefined), > 79 µM (inactive); under `CN(C(=O)CSc1nc2c(c(=O)[nH]1)CCCC2)C1CCCCC1`, > 79 µM (inactive). Under `COC(=O)c1ccccc1NC(=O)/C=C/c1cc(OC)c(OC)c(OC)c1` stands 22.9 µM. Regarding `CCOC(=O)C1=NN(C(=O)c2ccco2)C2(CC2)C1`, the IC50 was > 79 µM (inactive). Consider `Cc1ccc(NC(=O)CCCc2nc3ccccc3c(=O)[nH]2)c(Cl)c1`, for which the IC50 is 40 µM (inactive). The value for `COc1cc(-c2cc(C(=O)OCC(=O)NC3CC3)c3ccccc3n2)cc(OC)c1OC` was 10.7 µM. Under `COc1ccc(C(=O)COC(=O)C(CCCCN2C(=O)C3C4C=CC(C4)C3C2=O)N2C(=O)C3C4C=CC(C4)C3C2=O)cc1` (centres undefined) stands 13.7 µM; under `COCCN1Cc2cccc(C(=O)Nc3cccc(-c4nc5ccccc5[nH]4)c3)c2C1=O`, > 79 µM (inactive); under `COCCn1cnc2c(c1=O)c1nc3ccccc3nc1n2/N=C/c1cccc(OC)c1`, 38 µM (inactive). Under `O=C(Nc1cccc(N=Cc2cc(Cl)cc(Br)c2O)c1)c1ccco1` stands 26.5 µM; under `OC1CCN(c2c3c(nc4cc(-c5cccc(F)c5)nn24)CCCC3)CC1`, 23.6 µM; under `Cc1cc(O)c(C=Nc2ccc(N3CCOCC3)cc2)c(C)c1Cl`, > 79 µM (inactive).

`CC(OC(=O)c1cc(-c2cccnc2)nc2ccccc12)C(=O)Nc1ccc2ccccc2c1` (centres undefined): the IC50 was 11 µM. The value for `C=CCC[C@H](Cc1ccc(F)cc1)C(=O)OC[C@@H](Cc1c[nH]c2ccccc12)NC(=O)[C@@H](CC=C)CC(=O)NCCO` was > 79 µM (inactive); that for `COc1cc(OC)cc(C(=O)Nc2ccc(C(=O)Nc3ccccc3OC)cc2)c1` was 15.9 µM; that for `O=C(CCc1nc2ccccc2c(=O)[nH]1)N1CCN(S(=O)(=O)c2ccccc2Br)CC1` was > 79 µM (inactive). In the case of `CC(Oc1ccc(Br)cc1)C(=O)Nc1nc(-c2ccccn2)cs1` (centres undefined), the IC50 is > 79 µM (inactive). Turning to `COc1ccc(CNC(=O)c2ccc(Cn3nc(C)c([N+](=O)[O-])c3C)o2)cc1`, the IC50 was > 79 µM (inactive).

Regarding `CCc1nc(N2CCN(C(=O)c3ccco3)CC2)c2oc3ccccc3c2n1`, the IC50 was > 79 µM (inactive).

On to `CCCC(=O)Nc1cc(C)c2c(=O)oc3ccccc3c2n1`, for which the IC50 was > 79 µM (inactive).

Regarding `COc1ccc(-c2cnc3c(NC=O)cc(-c4cccc(NS(C)(=O)=O)c4)cn23)cc1OC`, the IC50 is 14.4 µM. The value for `C=CCn1cnc2c(c1=O)c1nc3ccccc3nc1n2/N=C/c1cc(OC)c(OC)c(OC)c1` was > 79 µM (inactive).

Turning to `Cc1csc(SCc2nc3sc4c(c3c(=O)[nH]2)CCC4)n1`, the IC50 was > 79 µM (inactive).

Take `O=C(OCC(=O)N1CCCCCC1)c1n[nH]c(=O)c2ccccc12`: the IC50 is > 79 µM (inactive).

In the case of `COc1cc(-c2cc3nc(NCCOc4ccccc4)ccn3n2)cc(OC)c1OC`, the half-inhibitory concentration (IC50) was 13.9 µM. On to `CCn1cc(C(=O)Nc2cccc(NC(C)=O)c2)c2cc(OC)c(OC)cc2c1=O`, for which the IC50 is > 79 µM (inactive). Under `CC(OC(=O)CCc1nc2ccccc2c(=O)[nH]1)C(=O)NC1CCCC1` (centres undefined) stands 57.3 µM (inactive); under `CC(C)(C)c1ccc(OCC(=O)Nc2ccc3c4c(cccc24)C(=O)NC3=O)cc1`, > 79 µM (inactive). The value for `O=c1cc(-c2ccncc2)oc2ccccc12` was > 79 µM (inactive); that for `Cc1ccccc1NC(=O)COc1cccc2c1CCNC2=O` was > 79 µM (inactive). The value for `CC1(NC(=O)CCc2nc3ccccc3c(=O)[nH]2)CCS(=O)(=O)C1` (centres undefined) was > 79 µM (inactive); that for `CN(C)S(=O)(=O)c1ccc2[nH]cc(/C=C/c3nc4ccccc4c(=O)n3-c3ccccc3)c2c1` was > 79 µM (inactive). Regarding `O=C(Nc1nc(-c2ccccn2)cs1)c1cccc(-n2cnnn2)c1`, the IC50 is > 79 µM (inactive). `COc1ccc(-c2csc(NC(=O)CCCc3nc4ccccc4c(=O)[nH]3)n2)cc1OC`: the IC50 is 25.3 µM.

As to `CN(C)C(=O)c1ccc(-c2n[nH]c(=O)c3ccccc23)cc1`, the IC50 was > 79 µM (inactive). Under `Cc1ccc(NCc2ccc(O)c3ncccc23)cc1C` stands > 79 µM (inactive). For the compound `N#C/C(=C\c1ccc(-c2cccc([N+](=O)[O-])c2)o1)C(=O)NCCN1CCOCC1`, the IC50 was > 79 µM (inactive).

Consider `COc1ccc(Cl)cc1NC(=O)CN(C)C(=O)CCc1nc2ccccc2c(=O)[nH]1`, for which the IC50 was > 79 µM (inactive). For `Cc1ccc(OCC(=O)N/N=C/c2cccc3cccnc23)cc1`, the IC50 is 35.8 µM (inactive). With `COC(=O)c1ccc(Cn2nnc3c(=O)[nH]c(C4CCCN(S(=O)(=O)c5ccccc5)C4)nc32)cc1` (centres undefined), the IC50 was > 79 µM (inactive). The value for `CC1CCCC(C)N1C(=O)COC(=O)c1n[nH]c(=O)c2ccccc12` (centres undefined) was > 79 µM (inactive); that for `Cn1c(=O)c2c(nc(NCCCO)n2C/C=C/c2ccccc2)n(C)c1=O` was > 79 µM (inactive); that for `COc1nnc(-c2ccc(C)c(S(=O)(=O)NCCO)c2)c2ccccc12` was > 79 µM (inactive). Under `Cc1ccc(C)c(NC(=O)C(Sc2nc3ccccc3c(=O)n2CC(C)C)c2ccccc2)c1` (centres undefined) stands > 79 µM (inactive); under `COc1cc(-c2nnc(COC(=O)c3cc(C)nc4ccc(C)cc34)o2)cc(OC)c1OC`, 15.6 µM. Under `COc1cc(C(=O)N/N=C/c2sc(N3CCOCC3)nc2-c2ccccc2)cc(OC)c1OC` stands 25.8 µM; under `Cc1nc(SCC(=O)NCc2ccc(F)cc2)c2c(=O)n(C)c(=O)n(C)c2n1`, > 79 µM (inactive); under `Cc1ccc(-c2n[nH]c(=O)c3ccccc23)cc1N`, 17.5 µM. In the case of `COc1ccc2[nH]c(=O)c(CNC3CCCCC3)cc2c1`, the IC50 is > 79 µM (inactive). The value for `COc1ccc(-n2c(/C=C/c3ccc(O)cc3)nc3ccccc3c2=O)cc1` was 15.8 µM; that for `COc1ccc2[nH]c(=O)c(CN(Cc3ccco3)C(c3nnnn3Cc3ccccc3)C(C)C)cc2c1` (centres undefined) was > 79 µM (inactive). Regarding `N#Cc1cnn2cc(-c3ncc(C(F)(F)F)cc3Cl)cnc12`, the IC50 is 27.6 µM. The value for `CC(=O)c1ccc(N2CCN(C(=O)C3CCCN(c4ncnc5c4nc4n5CCCCC4)C3)CC2)cc1` (centres undefined) was 17.5 µM; that for `O=C(N/N=C/c1cccc2cccnc12)[C@H]1C[C@@H]1c1ccccc1` was 29.2 µM. Consider `CC(=O)c1ccc(-c2cnc3c(NC=O)cc(-c4cccc(NS(C)(=O)=O)c4)cn23)cc1`, for which the IC50 is > 79 µM (inactive). For `c1ccc(CN2CCN(CCCNc3ccc4nnc(-c5ccccc5)n4n3)CC2)cc1`, the half-maximal inhibitory concentration (IC50) was 13.8 µM. The value for `CC(C)COc1nc2ccccc2c(=O)n1OCC(=O)O` was > 79 µM (inactive); that for `COc1cc(/C=N/NC(=O)c2cccnc2)ccc1OS(=O)(=O)c1cc(C)ccc1C` was > 79 µM (inactive); that for `COc1ccc(CCNC(=O)C(=O)NCC2CCCN2S(=O)(=O)c2cc(C)ccc2C)cc1` (centres undefined) was > 79 µM (inactive). The value for `O=C(CSc1nnc(Cc2cccs2)n1CCc1ccccc1)N1CCCc2ccccc21` was > 79 µM (inactive).

In the case of `O=C(CCc1nc2ccccc2c(=O)[nH]1)NNC(=O)COc1cccc(F)c1`, the IC50 was > 79 µM (inactive).

Turning to `CSc1nc2ccc(S(=O)(=O)Nc3c(C)n(C)n(-c4ccccc4)c3=O)cc2s1`, the IC50 was > 79 µM (inactive). `COc1ccc(N(CC(=O)NCCSc2ccccc2)S(=O)(=O)c2ccccc2)c(OC)c1`: the IC50 is 12.3 µM.

Consider `Brc1ccc(-c2nn3c(-c4ccccn4)nnc3s2)o1`, for which the IC50 is 52.8 µM (inactive). Consider `O=C(N/N=C/c1c(O)n(-c2ccccc2Cl)c(=O)c2ccccc12)C1COc2ccccc2O1` (centres undefined), for which the IC50 is 16.2 µM. The value for `C[C@@H](C(=O)Nc1nc(-c2ccccn2)cs1)N1C(=O)C2CCCCC2C1=O` (some centres undefined) was > 79 µM (inactive); that for `CN(CC(=O)Nc1cccc(F)c1)C(=O)Cc1n[nH]c(=O)c2ccccc12` was > 79 µM (inactive); that for `COc1cc(CN2C[C@@H](CO)O[C@@H](n3cnc4c(Nc5ccccc5)ncnc43)C2)cc(OC)c1OC` was 12.7 µM. As for `Cc1nn(Cc2ccc(C(=O)N3CCN(C(=O)c4ccco4)CC3)o2)c(C)c1[N+](=O)[O-]`, the IC50 is > 79 µM (inactive). The value for `O=C(CCc1nc2ccccc2c(=O)[nH]1)N1CCN(c2ccc(F)cc2)CC1` was > 79 µM (inactive).

Regarding `CCN1C(=O)[C@H]2[C@@H](c3ccc(-c4ccc(C(C)=O)cc4)cc3)N[C@@](C)(C(=O)OC)[C@H]2C1=O`, the IC50 is > 79 µM (inactive).

For `COc1ccccc1C(=O)NC(=O)COC(=O)Cn1[nH]c(=O)c2ccccc2c1=O`, the IC50 is > 79 µM (inactive). Under `CC1CCCC(C)N1C(=O)CSc1nc2ccccc2c(=O)[nH]1` (centres undefined) stands > 79 µM (inactive).

As for `CCOc1ccccc1NC(=O)c1oc2ccccc2c1NC(=O)C1CCCO1` (centres undefined), the half-inhibitory concentration (IC50) was 10.6 µM. Under `CC(=O)NCCNc1nc2c(-c3ccccc3)nnn2c2ccccc12` stands > 79 µM (inactive).

In the case of `COC(=O)c1ccc(CSc2ccc3nnc(-c4cccc(F)c4)n3n2)o1`, the IC50 was 27.4 µM. The value for `CC(OC(=O)Cn1[nH]c(=O)c2ccccc2c1=O)C(=O)Nc1ccc(F)cc1` (centres undefined) was > 79 µM (inactive); that for `CC1(C)CC2C1CCC1(O)CC2(C)CCC1N(O)c1ccc(C(=O)NCCO)cn1` (centres undefined) was 28.5 µM.

With `NNC(=O)c1cc2ccccc2cc1O`, the IC50 is > 79 µM (inactive).
